Experimental data reported in patent US20250059188A1, “ARYLSULPHONAMIDE COMPOUNDS” (Anaxis Pharma Pty Ltd, priority 2021, published 2025).

Key:
[1] = molecular target: human MLKL (full length) (Homo sapiens (Human), UniProt Q8NB16); assay: KINOMEscan binding assay, human MLKL (full length); conditions: equilibrium dissociation constant
How it was run: (§1)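 Compound dilutions (11 points, 3-fold, mostly from 30,000 nM, 1% DMSO final) competed with immobilized ligand for DNA- or phage-tagged protein, and bead-bound protein was measured by qPCR. Kd values came from Hill-equation fits with slope −1 (Levenberg-Marquardt).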

[2] = system: U937 human histiocytic leukemia cell line; assay: Inhibition of TSQ induced necroptosis in U937 cells (CellTitre-Glo); conditions: Homo sapiens, U-937, TSQ cocktail (TNF, Smac mimetic, Q-VD-OPh), 48 hours, read-out: Inhibition of TSQ-induced necroptosis (IC50 cell-based assay)
Method: Cellular Assay: Screening Compounds for Inhibition of TSQ Induced Necroptosis, 384 Well Plate Format.
(§2) • Cell Line ID: U937 human histiocytic leukemia cell line. • Cell Concentration (cells/well): Final cell density is 20000 cells per well. • Cell growth medium: HT-RPMI medium+7.4% Fetal Bovine Serum (FBS). Cells are cultured in Corning 150 cm^2 tissue culture flasks with vented caps at 37° C./5% CO2. • Incubation: Plates were incubated at 37° C./5% CO2 in a humidified incubator for 48 hours following addition of compounds and death stimuli (TSQ cocktail). • Compound concentration: 36 μM starting concentration, 1:3 dilution, 10 point • DMSO final concentration (% v/v): 0.3%. Compounds in TSQ Cocktail (T: TNF; S: Smac Mimetic; Q: Q-VD-OPh) and their Final Concentrations: • hTNF-Fc (100 ng/ml)—produced by standard procedures as shown in Bossen et al., J. Biol. Chem., 2006, 281(20), 13964-13971. • Compound A (500 nM) —Smac mimetic, Tetralogic and SYNthesis med chem • Q-VD-OPh (10 μM) —MP Biomedicals
(§3) The cellular assay was carried out according to the following steps: • 1. Each well was prepared by sequential addition of: • a. DMSO (control; columns 1-2 and 23-24) or compound in DMSO—addition was performed using acoustic transfer of nL volumes of stock compound to give final test concentrations of 36, 12, 4, 1.3, 0.44, 0.148, 0.049, 0.016, 0.005 and 0.002 μM. All wells were backfilled with DMSO to a final total volume in the well of 100 nL. • b. Following compound/DMSO addition in step (a), 40 μL of cell suspension (5×10^5 cells/mL) was added to provide a final cell concentration of 20,000 cells per well, and • c. Following cell addition in step (b), 10 μL of 5×TSQ cocktail (except to positive controls; columns 1 and 23) was added to each well. • 2. After 48 hours, plate was removed from the 37° C. incubator and equilibrated to room temperature for 45 minutes. • 3. 15 μL of room temperature CellTitre-Glo2™ (Promega™) was added to each well. • 4. Shook plates for 2 minutes (˜600 rpm) and incubated at room temperature for 15 minutes to allow signal to stabilise. • 5. Read luminescence readout on a plate reader.
Percent viability was calculated for each compound according to equation (2): […]
(§4) 10 point titration curves were fitted with the 4 parameter logistic nonlinear regression model and the IC50 reported reflect the inflection point of the curve for curve fitting.
(§5) • Assay involving the TSQ cocktail (T: TNF; S: Smac mimetic; Q: Q-VD-OPh): TSQ treatment ensures that cells specifically undergo necroptotic cell death. TNF activates the TNF receptor, Smac mimetic directs the signal away from proinflammatory signaling and toward the RIPK1/RIPK3-mediated cell death pathways, and Q-VD-OPh ensures that the apoptotic response is blocked leaving only the programmed necrosis response. The compounds' activity (solution in DMSO) tested in this TSQ-induced assay was evaluated by determining the number of viable cells in culture by measuring the amount of ATP present as measured by CelltiterGlo. • Counter screen: In parallel, all compounds were tested for their ability to affect cell viability. The same U937 cells were treated with compound in DMSO without the TSQ cocktail. This counter screen enabled evaluation of off-target effects. In this case, cell viability was measured by CelltiterGlo.

[3] = molecular target: human RIPK3 (Homo sapiens (Human), UniProt Q9Y572); assay: KINOMEscan binding assay, human RIPK3; conditions: equilibrium dissociation constant
human RIPK3, sequence (Q9Y572 whole entry): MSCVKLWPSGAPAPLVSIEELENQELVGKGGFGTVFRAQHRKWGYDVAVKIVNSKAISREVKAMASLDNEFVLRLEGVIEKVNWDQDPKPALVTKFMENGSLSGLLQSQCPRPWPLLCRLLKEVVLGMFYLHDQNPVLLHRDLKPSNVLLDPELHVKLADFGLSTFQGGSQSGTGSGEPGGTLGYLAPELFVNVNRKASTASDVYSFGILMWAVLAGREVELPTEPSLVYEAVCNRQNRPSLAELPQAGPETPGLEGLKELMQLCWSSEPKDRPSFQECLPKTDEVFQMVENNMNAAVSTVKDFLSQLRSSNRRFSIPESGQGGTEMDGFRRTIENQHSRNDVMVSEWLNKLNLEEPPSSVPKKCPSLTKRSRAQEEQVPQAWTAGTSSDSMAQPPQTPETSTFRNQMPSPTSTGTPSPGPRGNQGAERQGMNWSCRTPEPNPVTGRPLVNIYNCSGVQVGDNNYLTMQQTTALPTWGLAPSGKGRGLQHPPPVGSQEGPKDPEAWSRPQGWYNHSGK
How it was run: as §1

[4] = molecular target: human RIPK1 (Homo sapiens (Human), UniProt Q13546); assay: KINOMEscan binding assay, human RIPK1; conditions: equilibrium dissociation constant
human RIPK1, sequence (Q13546 whole entry): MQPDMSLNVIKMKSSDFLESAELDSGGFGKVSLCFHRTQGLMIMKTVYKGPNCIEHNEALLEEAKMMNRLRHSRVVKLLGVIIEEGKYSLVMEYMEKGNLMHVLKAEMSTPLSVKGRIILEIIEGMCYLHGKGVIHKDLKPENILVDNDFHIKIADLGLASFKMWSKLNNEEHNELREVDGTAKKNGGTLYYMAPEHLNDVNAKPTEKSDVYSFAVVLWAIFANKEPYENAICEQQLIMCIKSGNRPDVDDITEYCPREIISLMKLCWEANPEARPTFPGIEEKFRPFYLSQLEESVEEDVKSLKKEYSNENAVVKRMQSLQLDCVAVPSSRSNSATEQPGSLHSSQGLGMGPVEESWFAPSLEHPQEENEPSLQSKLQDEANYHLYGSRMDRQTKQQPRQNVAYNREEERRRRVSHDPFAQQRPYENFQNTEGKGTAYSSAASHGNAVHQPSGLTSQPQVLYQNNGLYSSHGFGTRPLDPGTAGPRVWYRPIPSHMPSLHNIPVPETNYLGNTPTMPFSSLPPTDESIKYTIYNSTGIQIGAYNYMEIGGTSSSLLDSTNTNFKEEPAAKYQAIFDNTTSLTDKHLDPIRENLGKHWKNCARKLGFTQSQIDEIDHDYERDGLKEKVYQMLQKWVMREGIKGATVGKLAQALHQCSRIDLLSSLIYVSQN
How it was run: as §1

[5] = system: U937 cells; assay: Counter screen: U937 cell viability without TSQ cocktail (off-target effect); set-up: species or system human; conditions: Homo sapiens, U-937, compound without TSQ cocktail, read-out: Off-target effect (IC50 cell-based assay)
Method: as §2, §3, §4, §5

human MLKL (full length), sequence (Q8NB16 whole entry): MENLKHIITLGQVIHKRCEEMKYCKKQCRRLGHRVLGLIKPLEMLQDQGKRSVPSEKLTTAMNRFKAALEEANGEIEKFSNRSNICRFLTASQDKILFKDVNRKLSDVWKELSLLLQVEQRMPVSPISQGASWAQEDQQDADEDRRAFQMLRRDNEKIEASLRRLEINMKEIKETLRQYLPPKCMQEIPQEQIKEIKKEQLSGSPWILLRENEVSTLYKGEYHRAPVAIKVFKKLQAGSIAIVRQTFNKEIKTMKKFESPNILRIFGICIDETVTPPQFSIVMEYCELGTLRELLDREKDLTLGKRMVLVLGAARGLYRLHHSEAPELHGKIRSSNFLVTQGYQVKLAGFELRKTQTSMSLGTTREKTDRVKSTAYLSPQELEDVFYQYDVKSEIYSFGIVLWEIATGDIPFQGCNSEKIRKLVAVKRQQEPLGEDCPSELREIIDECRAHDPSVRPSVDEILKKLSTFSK

Row | SMILES | Kd [1] [nM] | Kd [3] [µM] | Kd [4] [µM] | IC50 [2] [nM] | IC50 [5] [µM]
1 | C[C@H](Oc1cc(-c2nn(C)c3c(-c4cnn(C5CCOCC5)c4)cnc(N)c23)ccc1NS(C)(=O)=O)c1ccc(F)cc1 [Compound 119, (S)-N-(4-(4-amino-1-methyl-7-(1-(tetrahydro-2H-pyran-4-yl)-1H-pyrazol-4-yl)-1H-pyrazolo[4,3-c]pyridin-3-yl)-2-(1-(4-fluorophenyl)ethoxy)phenyl)methanesulfonamide] | 1 to 100 | > 10 | > 10 | 10 to 1000 | > 10
2 | Cn1cc(-c2cnc(N)c3c(-c4ccc(NS(=O)(=O)C(F)F)c(OCc5ccc(F)cc5)c4)nn(C)c23)cn1 [Compound 16, N-(4-(4-amino-1-methyl-7-(1-methyl-1H-pyrazol-4-yl)-1H-pyrazolo[4,3-c]pyridin-3-yl)-2-((4-fluorobenzyl)oxy)phenyl)-1,1-difluoromethanesulfonamide] | < 1 | > 10 | > 10 | 1000 to 10000 | > 10
3 | CC(C)n1nc(-c2ccc(NS(=O)(=O)C(F)F)c(O[C@@H](C)c3ccc(F)cc3)c2)c2c(N)ncc(-c3cnn(C)c3)c21 [Compound 52, (S)-N-(4-(4-amino-1-isopropyl-7-(1-methyl-1H-pyrazol-4-yl)-1H-pyrazolo[4,3-c]pyridin-3-yl)-2-(1-(4-fluorophenyl)ethoxy)phenyl)-1,1-difluoromethanesulfonamide] | 1 to 100 | > 10 | > 10 | 10 to 1000 | > 10
4 | COC[C@H](Oc1cc(-c2nn(C)c3c(-c4cnn(C5CCOCC5)c4)cnc(N)c23)ccc1NS(=O)(=O)C(F)F)c1ccc(F)cc1 [Compound 111, (R)—N-(4-(4-amino-1-methyl-7-(1-(tetrahydro-2H-pyran-4-yl)-1H-pyrazol-4-yl)-1H-pyrazolo[4,3-c]pyridin-3-yl)-2-(1-(4-fluorophenyl)-2-methoxyethoxy)phenyl)-1,1-difluoromethanesulfonamide] | 1 to 100 | > 10 | > 10 | 10 to 1000 | > 10
5 | CC(C)n1nc(-c2ccc(NS(=O)(=O)C(F)F)c(O[C@@H](C)c3ccc(F)cc3)c2)c2c(N)ncc(-c3ccncc3)c21 [Compound 50, (S)-N-(4-(4-amino-1-isopropyl-7-(pyridin-4-yl)-1H-pyrazolo[4,3-c]pyridin-3-yl)-2-(1-(4-fluorophenyl)ethoxy)phenyl)-1,1-difluoromethanesulfonamide] | < 1 | > 10 | > 10 | 10 to 1000 | > 10
6 | C[C@H](Oc1cc(-c2nn(C)c3c(-c4cnn(C5CC6CCC(C5)N6C)c4)cnc(N)c23)ccc1NS(=O)(=O)C(F)F)c1ccc(F)cc1 (stereo partly drawn) [Compound 73, N-(4-(4-amino-1-methyl-7-(1-(8-methyl-8-azabicyclo[3.2.1]octan-3-yl)-1H-pyrazol-4-yl)-1H-pyrazolo[4,3-c]pyridin-3-yl)-2-((S)-1-(4-fluorophenyl)ethoxy)phenyl)-1,1-difluoromethanesulfonamide] | < 1 | > 10 | > 10 | 10 to 1000 | > 10

Continued, in another order:

Row | Kd [1] [nM] | Kd [3] [µM] | Kd [4] [µM] | SMILES | IC50 [2] [nM] | IC50 [5] [µM]
7 | 100 to 10000 | > 10 | > 10 | C[C@H](Oc1cc(-c2nn(C)c3c(C4CCN(C)CC4)cnc(N)c23)ccc1NS(=O)(=O)C(F)F)c1ccc(F)cc1 [Compound 42, (S)—N-(4-(4-amino-1-methyl-7-(1-methylpiperidin-4-yl)-1H-pyrazolo[4,3-c]pyridin-3-yl)-2-(1-(4-fluorophenyl)ethoxy)phenyl)-1,1-difluoromethanesulfonamide] | 1000 to 10000 | > 10
8 | < 1 | > 10 | > 10 | Cc1cc(-c2cnc(N)c3c(-c4ccc(NS(=O)(=O)C(F)F)c(O[C@@H](C)c5ccc(F)cc5)c4)nn(C)c23)ccn1 [Compound 24, (S)-N-(4-(4-amino-1-methyl-7-(2-methylpyridin-4-yl)-1H-pyrazolo[4,3-c]pyridin-3-yl)-2-(1-(4-fluorophenyl)ethoxy)phenyl)-1,1-difluoromethanesulfonamide] | 10 to 1000 | > 10
9 | 1 to 100 | > 10 | > 10 | C[C@H](Oc1cc(-c2nn(C)c3c(-c4ccnc(C(F)(F)F)c4)cnc(N)c23)ccc1NS(=O)(=O)C(F)F)c1ccc(F)cc1 [Compound 23, (S)-N-(4-(4-amino-1-methyl-7-(2-(trifluoromethyl)pyridin-4-yl)-1H-pyrazolo[4,3-c]pyridin-3-yl)-2-(1-(4-fluorophenyl)ethoxy)phenyl)-1,1-difluoromethanesulfonamide] | 1000 to 10000 | > 10
10 | < 1 | > 10 | > 10 | C[C@H](Oc1cc(-c2nn(C)c3c(-c4cnn(CC5CCCN5)c4)cnc(N)c23)ccc1NS(=O)(=O)C(F)F)c1ccc(F)cc1 (stereo partly drawn) [Compound 88, N-(4-(4-amino-1-methyl-7-(1-(pyrrolidin-2-ylmethyl)-1H-pyrazol-4-yl)-1H-pyrazolo[4,3-c]pyridin-3-yl)-2-((S)-1-(4-fluorophenyl)ethoxy)phenyl)-1,1-difluoromethanesulfonamide] | 10 to 1000 | > 10
11 | 1 to 100 | > 10 | > 10 | C[C@H](Oc1cc(-c2nn(C)c3c(N4CCOCC4)cnc(N)c23)ccc1NS(=O)(=O)C(F)F)c1ccc(F)cc1 [Compound 141, N-{4-[4-amino-1-methyl-7-(morpholin-4-yl)-1H-pyrazolo[4,3-c]pyridin-3-yl]-2-[(1S)-1-(4-fluorophenyl)ethoxy]phenyl}-1,1-difluoromethanesulfonamide] | 10 to 1000 | > 10
12 | < 1 | > 10 | > 10 | C[C@H](Oc1cc(-c2nn(C)c3c(-c4cnn(C5CCNCC5)c4)cnc(N)c23)ccc1NS(=O)(=O)C(F)F)c1ccc(F)cc1 [Compound 59, (S)-N-(4-(4-amino-1-methyl-7-(1-(piperidin-4-yl)-1H-pyrazol-4-yl)-1H-pyrazolo[4,3-c]pyridin-3-yl)-2-(1-(4-fluorophenyl)ethoxy)phenyl)-1,1-difluoromethanesulfonamide] | 10 to 1000 | > 10
13 | < 1 | > 10 | > 10 | C[C@H](Oc1cc(-c2nn(C)c3c(-c4ccc(N5CCN(C)CC5)nc4)cnc(N)c23)ccc1NS(=O)(=O)C(F)F)c1ccc(F)cc1 [Compound 107, (S)-N-(4-(4-amino-1-methyl-7-(6-(4-methylpiperazin-1-yl)pyridin-3-yl)-1H-pyrazolo[4,3-c]pyridin-3-yl)-2-(1-(4-fluorophenyl)ethoxy)phenyl)-1,1-difluoromethanesulfonamide] | 10 to 1000 | > 10
14 | < 1 | > 10 | > 10 | C[C@H](Oc1cc(-c2nn(C)c3c(-c4cnn(C5CCOC5)c4)cnc(N)c23)ccc1NS(=O)(=O)C(F)F)c1ccc(F)cc1 (stereo partly drawn) [Compound 41, N-(4-(4-amino-1-methyl-7-(1-(tetrahydrofuran-3-yl)-1H-pyrazol-4-yl)-1H-pyrazolo[4,3-c]pyridin-3-yl)-2-((S)-1-(4-fluorophenyl)ethoxy)phenyl)-1,1-difluoromethanesulfonamide] | < 10 | > 10
